Measurements from PubChem BioAssay AID1963874 (Molecular Pharmacology Branch, DTP, NCI, 2024).

Tested on: 253994-281-T-J1-PDC KRAS-mutant spheroids with HUVEC/MSC, viability
Test: Anticancer human tumor 253994-281-T-J1-PDC patient-derived colorectal carcinoma cell line growth inhibition [KRAS2]
Conditions: for IC50: curve of first compound; for viability, T/C: stronger effect = lower value
In short: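 Combination screen of spheroid viability in tumor-cell co-cultures with endothelial (HUVEC) and mesenchymal stem cell stroma. Each agent was tested in half-log dilutions, topping at clinical Cmax or at 10 microM without a known Cmax.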

[1] = second compound 0.1 µM, first compound 0.0316 µM
[2] = second compound 0.1 µM, first compound 0.1 µM
[3] = second compound 0.1 µM, first compound 0.316 µM
[4] = second compound 0.1 µM, first compound 1 µM
[5] = second compound 0.1 µM, first compound 3.16 µM
[6] = second compound 0.1 µM, first compound 10 µM
[7] = second compound 0.316 µM, first compound 0.0316 µM
[8] = second compound 0.316 µM, first compound 0.1 µM
[9] = second compound 0.316 µM, first compound 0.316 µM
[10] = second compound 0.316 µM, first compound 1 µM
[11] = second compound 0.316 µM, first compound 3.16 µM
[12] = second compound 0.316 µM, first compound 10 µM
[13] = second compound 1 µM, first compound 0.0316 µM
[14] = second compound 1 µM, first compound 0.1 µM
[15] = second compound 1 µM, first compound 0.316 µM
[16] = second compound 1 µM, first compound 1 µM
[17] = second compound 1 µM, first compound 3.16 µM
[18] = second compound 1 µM, first compound 10 µM
[19] = second compound 3.16 µM, first compound 0.0316 µM
[20] = second compound 3.16 µM, first compound 0.1 µM
[21] = second compound 3.16 µM, first compound 0.316 µM
[22] = second compound 3.16 µM, first compound 1 µM
[23] = second compound 3.16 µM, first compound 3.16 µM
[24] = second compound 3.16 µM, first compound 10 µM
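Further: spheroids exposed to agents for seven days before readout.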
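Wherever viability, T/C is given: percent of DMSO vehicle control viability.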

Compound	IC50 (second compound 0.1 µM) [µM]	IC50 (second compound 0.316 µM) [µM]	IC50 (second compound 1 µM) [µM]	IC50 (second compound 3.16 µM) [µM]	viability, T/C [1] [%]	viability, T/C [2] [%]	viability, T/C [3] [%]	viability, T/C [4] [%]	viability, T/C [5] [%]	viability, T/C [6] [%]	viability, T/C [7] [%]	viability, T/C [8] [%]	viability, T/C [9] [%]	viability, T/C [10] [%]	viability, T/C [11] [%]	viability, T/C [12] [%]	viability, T/C [13] [%]	viability, T/C [14] [%]	viability, T/C [15] [%]	viability, T/C [16] [%]	further results
COC(=O)c1ccc2c(C(=Nc3ccc(N(C)C(=O)CN4CCN(C)CC4)cc3)c3ccccc3)c(O)[nH]c2c1 + COc1cc2nc(C)nc(NC(C)c3cc(N)cc(C(F)(F)F)c3)c2cc1OC1CCOC1	5.28	5.43	4.65	2.29	100	103	103	85.1	85.6	9.83	93.6	75	79.2	91.6	74.2	22.8	71.9	71.6	73.1	85.1	IC50 (second compound 10 µM): 0.721 µM; viability, T/C [17]: 71.3%; viability, T/C [18]: 7.12%; viability, T/C [19]: 73.4%; viability, T/C [20]: 75.4%; viability, T/C [21]: 84.4%; viability, T/C [22]: 74.5%; viability, T/C [23]: 40.2%; viability, T/C [24]: 0.2%; viability, T/C (second compound 10 µM, first compound 0.0316 µM): 68.6%; viability, T/C (second compound 10 µM, first compound 0.1 µM): 79.1%; viability, T/C (second compound 10 µM, first compound 0.316 µM): 48.6%; viability, T/C (second compound 10 µM, first compound 1 µM): 54.4%; viability, T/C (second compound 10 µM, first compound 3.16 µM): 12.4%; viability, T/C (second compound 10 µM, first compound 10 µM): 0.21%
O=C(c1cc(Cc2n[nH]c(=O)c3ccccc23)ccc1F)N1CCN(C(=O)C2CC2)CC1 + C=CC(=O)N1CCN(c2nc(OCC3CCCN3C)nc3c2CCN(c2cccc4cccc(C)c24)C3)CC1CC#N	> 10	> 10	> 10	< 0.0316	83.1	101	94.1	87.1	82.1	85.2	80.3	81	83.8	73	79.6	89.6	87.4	113	88.2	90.7	IC50 (second compound 0.0316 µM): > 10 µM; viability, T/C (second compound 0.0316 µM, first compound 0.0316 µM): 108%; viability, T/C (second compound 0.0316 µM, first compound 0.1 µM): 100%; viability, T/C (second compound 0.0316 µM, first compound 0.316 µM): 95.8%; viability, T/C (second compound 0.0316 µM, first compound 1 µM): 90.5%; viability, T/C (second compound 0.0316 µM, first compound 3.16 µM): 90.5%; viability, T/C (second compound 0.0316 µM, first compound 10 µM): 82.8%; viability, T/C [17]: 81.4%; viability, T/C [18]: 80.8%; viability, T/C [19]: 32.7%; viability, T/C [20]: 13%; viability, T/C [21]: 15.7%; viability, T/C [22]: 24.1%; viability, T/C [23]: 21%; viability, T/C [24]: 21.1%
